Measurements as given in ChEMBL document CHEMBL3046464, “3D quantitative structureactivity relationship for quinoline, benzimidazole and benzofuran-based analogs as phosphodiesterases IV (PDE-IV) inhibitors” (Med Chem Res, 2013).

Target: Phosphodiesterase 4 (Homo sapiens, UniProt P27815+Q08499+Q07343+Q08493)
Assay: Inhibition of PDE4 in Homo sapiens (human) U937 cells
Type: cell-based
Conditions: u-937

| pIC50 | Compound |
| --- | --- |
| 5 | COc1ccc(C(=O)Nc2c(Cl)cncc2Cl)c2c1ncn2C |
| 6.678 | CO/N=C(\C)c1ccc2c(C(=O)Nc3c(Cl)cncc3Cl)ccc(OC)c2n1 |
